What was measured:
[1] = Anticancer activity against human U937 cells assessed as decrease in uridine incorporation at 30 uM relative to control; type: functional, U-937; set-up: scale not given: the % may be the effect or the level left
[2] = test system: K562; assay: Growth inhibition of human K562 cells at 10^-5 M relative to control; type: functional; conditions: values are per cent of control
[3] = test system: CCRF-CEM; assay: Growth inhibition of human CCRF-CEM cells at 10^-5 M relative to control; type: functional; conditions: values are per cent of control
[4] = Growth inhibition of human NCI-ADR-RES cells at 10^-5 M relative to control; type: functional; conditions: values are per cent of control
[5] = Growth inhibition of human UO31 cells at 10^-5 M relative to control; type: functional; conditions: UO-31, values are per cent of control
[6] = test system: SK-MEL-5; assay: Growth inhibition of human SK-MEL-5 cells at 10^-5 M relative to control; type: functional; conditions: values are per cent of control
[7] = Growth inhibition of human RXF393 cells at 10^-5 M relative to control; type: functional; conditions: RXF 393, values are per cent of control
[8] = test system: MDA-MB-468; assay: Growth inhibition of human MDA-MB-468 cells at 10^-5 M relative to control; type: functional; conditions: values are per cent of control
[9] = test system: T47D; assay: Growth inhibition of human T47D cells at 10^-5 M relative to control; type: functional; conditions: values are per cent of control
[10] = test system: MOLT-4; assay: Growth inhibition of human MOLT4 cells at 10^-5 M relative to control; type: functional; conditions: values are per cent of control
[11] = test system: NCI-H522; assay: Growth inhibition of human NCI-H522 cells at 10^-5 M relative to control; type: functional; conditions: values are per cent of control
[12] = test system: MCF7; assay: Growth inhibition of human MCF7 cells at 10^-5 M relative to control; type: functional; conditions: values are per cent of control
[13] = test system: IGROV-1; assay: Growth inhibition of human IGROV1 cells at 10^-5 M relative to control; type: functional; conditions: values are per cent of control
[14] = test system: NCI-H226; assay: Growth of human NCI-H226 cells at 10^-5 M relative to control
[15] = test system: HL-60(TB); assay: Growth inhibition of human HL-60(TB) cells at 10^-5 M relative to control; type: functional; conditions: values are per cent of control
[16] = test system: NCI-H322M; assay: Growth inhibition of human NCI-H322M cells at 10^-5 M relative to control; type: functional; conditions: values are per cent of control
[17] = test system: HCT-15; assay: Growth inhibition of human HCT15 cells at 10^-5 M relative to control; type: functional; conditions: values are per cent of control
[18] = test system: HCT-116; assay: Growth inhibition of human HCT116 cells at 10^-5 M relative to control; type: functional; conditions: values are per cent of control
[19] = test system: CAKI-1; assay: Growth inhibition of human CAKI-1 cells at 10^-5 M relative to control; type: functional; conditions: values are per cent of control
[20] = Growth inhibition of human OVCAR5 cells at 10^-5 M relative to control; type: functional; conditions: OVCAR-5, values are per cent of control
[21] = test system: PC-3; assay: Growth inhibition of human PC3 cells at 10^-5 M relative to control; type: functional; conditions: values are per cent of control
[22] = test system: LOX IMVI; assay: Growth inhibition of human LOXIMVI cells at 10^-5 M relative to control; type: functional; conditions: values are per cent of control
[23] = test system: SR; assay: Growth inhibition of human SR cells at 10^-5 M relative to control; type: functional; conditions: values are per cent of control
[24] = test system: SNB-75; assay: Growth inhibition of human SNB75 cells at 10^-5 M relative to control; type: functional; conditions: values are per cent of control

Row | SMILES | growth, % of control at 10 µM [2] | growth, % of control at 10 µM [3] | growth, % of control at 10 µM [4] | growth, % of control at 10 µM [5] | growth, % of control at 10 µM [6] | growth, % of control at 10 µM [7] | growth, % of control at 10 µM [8] | growth, % of control at 10 µM [9] | growth, % of control at 10 µM [10] | growth, % of control at 10 µM [12] | growth, % of control at 10 µM [13] | growth, % of control at 10 µM [15] | growth, % of control at 10 µM [17] | growth, % of control at 10 µM [18] | growth, % of control at 10 µM [19] | growth, % of control at 10 µM [20] | growth, % of control at 10 µM [21] | growth, % of control at 10 µM [22] | growth, % of control at 10 µM [23] | growth, % of control at 10 µM [24] | further results
1 | O=c1[nH]c(=O)n([C@H]2C[C@@H]3[C@@H](/C=C/[C@@H](O)COc4cccc(Cl)c4)[C@H](O)C[C@@H]3O2)cc1I | – | – | – | – | – | – | – | – | – | – | – | – | – | – | – | – | – | – | – | – | Activity [1]: 64%
2 | Nc1ncnc2c1ncn2[C@H]1C[C@H]2[C@H](CO)[C@@H]1C[C@@H]2Cl | 97.1% | 90.1% | 103% | 94.2% | 96.5% | 106% | 103% | 102% | 85.6% | 100% | 103% | 95.8% | 97.5% | 89.2% | 86.9% | 90.1% | 99.3% | 91.8% | 88.9% | 103% | growth, % of control at 10 µM [11]: 98.7%; growth, % of control at 10 µM [14]: 110%; growth, % of control at 10 µM [16]: 102%
3 | CN(C)c1ncnc2c1ncn2[C@H]1C[C@H]2[C@H](CO)[C@@H]1C[C@@H]2Cl | 91% | 86.7% | 98.7% | 79.1% | 99.5% | 109% | 102% | 96.8% | 78.9% | 94.9% | 101% | 98.2% | 100% | 101% | 95.1% | 90.3% | 93.3% | 96.8% | 81.4% | 99.3% | growth, % of control at 10 µM [11]: 88.3%; growth, % of control at 10 µM [14]: 101%; growth, % of control at 10 µM [16]: 96.8%
4 | CN(C)c1ncnc2c1ncn2[C@H]1C[C@@H]2C=C[C@H]1[C@H]2CO | 90% | 87.9% | 99.5% | 82.7% | 98.3% | 109% | 98.2% | 104% | 79.7% | 98.7% | 98.2% | 88.8% | 98.9% | 94.8% | 97.9% | 96.5% | 92% | 95.8% | 82.2% | 109% | growth, % of control at 10 µM [11]: 98.5%; growth, % of control at 10 µM [14]: 109%; growth, % of control at 10 µM [16]: 104%
5 | OC[C@H]1[C@@H]2C[C@H](n3cnc4c(NC5CC5)ncnc43)[C@H]1C[C@@H]2Cl | 95.8% | 89.5% | 101% | 85.8% | 101% | 110% | 100% | 89.6% | 84.8% | 98.5% | 90.6% | 89% | 96.5% | 96.5% | 102% | 95% | 104% | 89.6% | 86.6% | 97.8% | growth, % of control at 10 µM [11]: 88.7%; growth, % of control at 10 µM [14]: -27.2%; growth, % of control at 10 µM [16]: 90%
6 | OC[C@H]1[C@@H]2C[C@H](n3cnc4c(NC5CCCC5)ncnc43)[C@H]1C[C@@H]2Cl | 93.1% | 83.7% | 103% | 99.6% | 95.7% | 104% | 102% | 94.1% | 87.1% | 97.2% | – | 118% | 93.7% | 99.8% | 99% | 98.8% | 95.3% | 89.7% | 86.5% | 88% | growth, % of control at 10 µM [11]: 101%
7 | OC[C@H]1[C@@H]2C[C@H](n3cnc4c(NCCc5ccccc5)ncnc43)[C@H]1C[C@@H]2Cl | 91.1% | 87.6% | 88.2% | 73.8% | 73.9% | 87% | 89.4% | 86.8% | 83.3% | 89.9% | 105% | 120% | 81.7% | 101% | 96% | 104% | 89.1% | 92.7% | 84.1% | 106% | growth, % of control at 10 µM [16]: 99.5%
8 | CCN(CC)CCCNc1ncnc2c1ncn2[C@H]1C[C@H]2[C@H](CO)[C@@H]1C[C@@H]2Cl | 106% | 90.2% | 103% | 80.6% | 102% | 111% | 101% | 104% | 83.6% | 95.9% | 112% | 90.5% | 101% | 98.5% | 93% | 99.7% | 102% | 96.9% | 85.8% | 99.2% | growth, % of control at 10 µM [11]: 93.2%; growth, % of control at 10 µM [14]: 105%; growth, % of control at 10 µM [16]: 93.2%
9 | CN1CCN(c2ncnc3c2ncn3[C@H]2C[C@H]3[C@H](CO)[C@@H]2C[C@@H]3Cl)CC1 | 107% | 90.5% | 100% | 78.5% | 99.4% | 111% | 101% | 100% | 83.4% | 84% | 92.7% | 86% | 97.7% | 101% | 98.4% | 96.4% | 96.2% | 98% | 81% | 107% | growth, % of control at 10 µM [14]: 102%; growth, % of control at 10 µM [16]: 92.7%
10 | OC[C@H]1[C@@H]2C[C@H](n3cnc4c(N5CCOCC5)ncnc43)[C@H]1C[C@@H]2Cl | 90.7% | 84.9% | 99% | 76.9% | 99.8% | 113% | 110% | 100% | 81.1% | 99.9% | 92.3% | 91.9% | 93% | 89.6% | 87.2% | 93% | 98.5% | 95.8% | 82.3% | 85.6% | growth, % of control at 10 µM [11]: 94.5%; growth, % of control at 10 µM [14]: 108%; growth, % of control at 10 µM [16]: 100%
